Measurements as given in paper PMC5971468, “Small molecules that inhibit the late stage of Munc13-4–dependent secretory granule exocytosis in mast cells” (The Journal of Biological Chemistry, 2018).

How the values were obtained:
Munc13-4 [1] = target: T1, Munc13-4 (Homo sapiens, UniProt Q70J99); assay: SNARE-dependent liposome lipid-mixing FRET assay with purified Munc13-4 + Ca2+; liposome flotation binding assay; format: biochemical
T1 construct: gene UNC13D; His6-tagged human Munc13-4 protein produced in insect Sf9 cells
T1 sequence (Q70J99 whole entry): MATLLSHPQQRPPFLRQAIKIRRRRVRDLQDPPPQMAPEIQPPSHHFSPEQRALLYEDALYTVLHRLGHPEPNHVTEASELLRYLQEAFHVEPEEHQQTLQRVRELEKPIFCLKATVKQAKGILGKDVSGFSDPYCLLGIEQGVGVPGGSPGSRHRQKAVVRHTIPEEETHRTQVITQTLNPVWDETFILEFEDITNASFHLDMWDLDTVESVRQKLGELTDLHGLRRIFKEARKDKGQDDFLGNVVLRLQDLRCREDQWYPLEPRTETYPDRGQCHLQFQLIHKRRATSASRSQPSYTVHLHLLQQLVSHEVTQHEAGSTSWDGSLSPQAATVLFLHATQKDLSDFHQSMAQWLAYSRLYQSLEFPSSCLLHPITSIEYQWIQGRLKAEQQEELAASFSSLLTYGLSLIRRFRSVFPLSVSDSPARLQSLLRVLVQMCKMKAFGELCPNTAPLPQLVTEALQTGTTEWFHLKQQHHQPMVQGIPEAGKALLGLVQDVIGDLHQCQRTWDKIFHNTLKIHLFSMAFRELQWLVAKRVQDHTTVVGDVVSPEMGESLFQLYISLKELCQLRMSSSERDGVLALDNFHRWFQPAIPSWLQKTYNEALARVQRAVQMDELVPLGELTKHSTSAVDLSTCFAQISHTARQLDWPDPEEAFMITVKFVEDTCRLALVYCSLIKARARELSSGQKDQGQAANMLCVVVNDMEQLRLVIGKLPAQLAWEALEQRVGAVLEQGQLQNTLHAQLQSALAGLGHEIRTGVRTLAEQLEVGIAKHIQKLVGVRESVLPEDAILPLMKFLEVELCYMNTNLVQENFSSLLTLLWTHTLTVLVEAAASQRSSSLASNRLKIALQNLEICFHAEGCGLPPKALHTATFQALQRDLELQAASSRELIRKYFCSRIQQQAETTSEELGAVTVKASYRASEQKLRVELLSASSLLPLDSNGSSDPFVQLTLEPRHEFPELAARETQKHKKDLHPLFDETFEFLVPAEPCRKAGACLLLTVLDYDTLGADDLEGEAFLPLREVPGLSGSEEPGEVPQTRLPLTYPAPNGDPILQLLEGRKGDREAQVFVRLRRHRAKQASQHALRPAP
T1 sequence (P32851 whole entry partner): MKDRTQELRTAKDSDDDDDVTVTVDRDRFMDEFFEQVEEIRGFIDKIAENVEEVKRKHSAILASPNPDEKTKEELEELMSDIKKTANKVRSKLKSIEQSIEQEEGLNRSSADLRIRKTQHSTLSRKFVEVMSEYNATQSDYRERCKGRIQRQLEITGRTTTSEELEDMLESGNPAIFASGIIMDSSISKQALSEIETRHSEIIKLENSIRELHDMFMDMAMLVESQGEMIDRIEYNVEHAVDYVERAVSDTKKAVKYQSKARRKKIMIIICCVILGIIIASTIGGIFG
T1 sequence (P60879 whole entry partner): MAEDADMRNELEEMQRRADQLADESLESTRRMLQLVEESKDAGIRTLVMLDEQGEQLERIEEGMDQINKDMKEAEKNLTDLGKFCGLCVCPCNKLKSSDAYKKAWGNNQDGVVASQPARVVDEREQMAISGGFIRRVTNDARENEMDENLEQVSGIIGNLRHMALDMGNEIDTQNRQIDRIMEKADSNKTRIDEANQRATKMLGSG
T1 sequence (P63044 2-116 partner): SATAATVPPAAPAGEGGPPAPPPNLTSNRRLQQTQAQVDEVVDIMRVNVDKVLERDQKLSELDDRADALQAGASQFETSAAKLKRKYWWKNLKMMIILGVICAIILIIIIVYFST

Munc13-4 [2] = target: T1, Munc13-4; assay: SNARE-dependent liposome lipid-mixing FRET assay with purified Munc13-4 + Ca2+; format: biochemical

SMILES	IC50 (Munc13-4 [1]) [µM]	IC50 (Munc13-4 [2]) [µM]
CCn1nc(C(=O)N(CCCN(C)C)c2nc3c(C)ccc(Cl)c3s2)cc1C [bexin-1]	~5	
COc1ccc2sc(N(CCCN(C)C)C(=O)c3ccc(S(=O)(=O)N4CCCc5ccccc54)cc3)nc2c1 [bexin-3]		~5
